Test results as given in patent publication US20260234116A1, “CYTOTOXIC EPOXYKETONE COMPOUNDS, PRECURSORS, COMPOSITIONS, AND METHODS OF USE” (Memorial Sloan-Kettering Cancer Center, priority 2023, published 2026).
pIC50: −log10 of the molar value. Like-named read-outs stand apart in the source and are kept apart here.

How the values were obtained:
EpnF [1] = target: T1, EpnF (Streptomyces hygroscopicus, UniProt V5RMU9); assay: Semiquantitative epoxide capture assay (EpnF-catalyzed epoxyketone formation); assay type: biochemical; conditions: 1 μM EpnF; for EpnF-catalyzed conversion to epoxyketone (epoxide capture): 240 μM β-ketoacid substrate (FIG. 2); for EpnF-catalyzed formation of epoxyketone (epoxide capture): 250 μM β-ketoacid substrate, 1 h, positive control 11n (FIG. 1)
T1 sequence (V5RMU9 entry or part of it): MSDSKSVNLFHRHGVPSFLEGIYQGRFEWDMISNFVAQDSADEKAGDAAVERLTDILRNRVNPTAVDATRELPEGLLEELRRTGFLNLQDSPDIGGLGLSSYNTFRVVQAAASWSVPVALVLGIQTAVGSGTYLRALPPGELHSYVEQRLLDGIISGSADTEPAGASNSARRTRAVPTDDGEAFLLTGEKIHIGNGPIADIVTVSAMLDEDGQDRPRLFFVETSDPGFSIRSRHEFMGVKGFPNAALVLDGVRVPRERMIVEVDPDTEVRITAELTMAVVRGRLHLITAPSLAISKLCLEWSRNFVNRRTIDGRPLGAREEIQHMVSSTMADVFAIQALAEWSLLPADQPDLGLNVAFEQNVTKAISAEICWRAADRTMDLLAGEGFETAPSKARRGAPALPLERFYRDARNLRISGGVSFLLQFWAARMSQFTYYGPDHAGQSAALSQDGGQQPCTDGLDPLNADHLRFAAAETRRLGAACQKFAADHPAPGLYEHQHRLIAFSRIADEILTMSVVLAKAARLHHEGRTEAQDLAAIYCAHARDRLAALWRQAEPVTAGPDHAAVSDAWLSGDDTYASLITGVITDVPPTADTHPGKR
Description: Recombinant EpnF was diluted to 1 μM in 180 μL EpnF Buffer in an 1.5 mL Eppendorf tube. The β-ketoacid 11 was added at various concentrations to a total reaction volume of 200 μL. The mixture was incubated in a heated shaker at 37° C. and 225 rpm for 1 h. The reaction mixture (30 μL×3 technical replicates) was transferred to a white, opaque 96-well plate (PerkinElmer, OptiPlate-96). Each plate also contained 30 μL×3 technical replicates of EpnF Buffer as a negative control. To each well, 15 μL of 125 mM nicotinamide in EpnF Buffer was added and mixed by pipetting. The plate was sealed with an adhesive foil cover (VWR Adhesive Foil for Microplates) and heated in an oven at 80° C. for 1 h. The plate was cooled to rt and 25 μL of 15% (v/v) acetophenone in EtOH and 25 μL of 1 M potassium hydroxide in EtOH were added to each well, then mixed by pipetting. The plate was cooled on ice for 10 min, then 125 μL formic acid was added to each well. The plate was resealed and heated in an oven at 100° C. for 5 min. The plate was cooled on ice for 5-10 min, then analyzed (λex 370 nm, λem 430 nm) on a fluorescence plate reader (Molecular Devices Spectramax M3).
We adapted a reported epoxide capture assay [Nelis, H. J. C. F.; Sinsheimer, J. E. (1981) A sensitive fluorimetric procedure for the determination of aliphatic epoxides under physiological conditions. Anal. Biochem. 115, 151-157.] to 96-well plate format to detect formation of the epoxyketone products semiquantitatively. Each β-ketoacid substrate 11 was incubated with recombinant, purified EpnF (1 h), then reacted with nicotinamide and acetophenone (1 h) to form a fluorescent 1,6-naphthyridinone 24. The fluorescent signals were normalized to that resulting from the known substrate β-ketoacid 11n as a positive control [Zabala, D.; Cartwright, J. W.; Roberts, D. M.; Law, B. J. C.; Song, L.; Samborskyy, M.; Leadlay, P. F.; Micklefield, J.; Challis, G. L. (2016) A flavin-dependent decarboxylase-dehydrogenase-monooxygenase assembles the warhead of α,β-epoxyketone proteasome inhibitors. J. Am. Chem. Soc. 138, 4342-4345.].

EpnF [2] = target: T1, EpnF; assay: Enzyme kinetic analysis by SPE-MS/MS assay; assay type: biochemical; conditions: quantitative SPE-MS/MS assay
Description: SPE-MS/MS analyses were carried out on an Agilent RapidFire 365 High-Throughput Mass Spectrometry System with 6495 triple quadrupole mass spectrometer. Determination of initial velocity: EpnF stock at 100 μM was diluted 10-fold in EpnF Buffer to a 10 μM working solution, which was further diluted to 8 concentrations (10-0.005 μM) in EpnF Buffer (intermediate volume 1350 μL, concentrations calculated for 1500 μL theoretical final volume corresponding to addition of substrate solutions below). The 8 EpnF enzyme dilutions were aliquoted (90 μL) into the corresponding 8 tubes of PCR tube strips (12 strips, one per time point; Thermo Scientific, AB-2000). The β-ketoacid 11 (20 mM in EtOH) was diluted to 10 μM in EpnF Buffer, then 10 μL of this solution was added to each of the tubes (1 μM final concentration, 100 μL final volume) to initiate the reaction. Samples were incubated in a heated shaker at 37° C. and 225 rpm for up to 120 min, and one tube strip was removed at each time point. Each tube was quenched with 5% formic acid in EpnF Buffer (100 μL), pipetted vigorously, and flash frozen on dry ice. Samples were thawed then centrifuged to precipitate protein and transferred to a conical-bottom 96-well plate (Thermo Scientific/Nunc, 249944) for SPE-MS/MS analysis. Measurement of Km and Vmax: Using the data from the initial velocity experiments above, an appropriate EpnF enzyme concentration was selected for each β-ketoacid 11 at which the rate of conversion to the epoxyketone 12 remained linear at 10 min (0.50 μM for 11n and 0.05 μM for all other substrates). Each substrate (20 mM in EtOH) was diluted to 1 mM in EpnF Buffer, then diluted to 8 concentrations (100-0.5 μM) in EpnF Buffer (intermediate volume 1350 μL, concentrations calculated for 1500 μL theoretical volume corresponding to addition of enzyme solutions below). The 8 substrate dilutions were aliquoted (90 μL) into the corresponding 8 tubes of PCR tube strips (12 strips, one per time point; Thermo Scientific, AB-2000). The EpnF enzyme stock solution was diluted in EpnF Buffer to the appropriate concentration for each substrate, then 10 μL of this solution was added to each of the tubes (100 μL final volume) to initiate the reaction. For the 0-min time point, 5% formic acid in EpnF Buffer was added to the β-ketoacid substrate before addition of the enzyme. Samples were incubated in a heated shaker at 37° C. and 225 rpm for up to 10 min, and one tube strip was removed at each time point. Each tube was quenched by addition of 5% formic acid in EpnF Buffer (100 μL), pipetted vigorously, and flash frozen on dry ice. Samples were thawed then centrifuged to precipitate proteins and the supernatants were transferred to a conical-bottom 96-well plate (Thermo Scientific/Nunc, 249944) for SPE-MS/MS analysis. Km and Vmax values for each substrate were calculated by Michaelis-Menten analysis. To obtain a quantitative assessment of EpnF substrate specificity, we developed a kinetic assay (10 min) using SPE-MS/MS (solid-phase extraction/triple quadrupole mass spectrometry; Agilent RapidFire 365 with 6495 MS) to enable direct detection of both substrates and products.

Raji B-cell lymphoma = assay: Cytotoxicity of epoxyketones, CellTitre-Glo, 48 h; assay type: cell-based; conditions: Homo sapiens; for pIC50: read-out: IC50; for IC50: read-out: log IC50 (converted)
Description: (§1) Cytotoxicity Assays. Cancer cell lines (ATCC: U266 multiple myeloma, EL4 mouse lymphoma, Raji B-cell lymphoma) were cultured in Roswell Park Memorial Institute (RPMI) medium supplemented with 10% fetal bovine serum (FBS), 2 mM L-glutamine, 100 IU/mL penicillin, 100 μg/mL nonessential amino acids, 1 mM sodium pyruvate, and 57 μM β-mercaptoethanol. Cells (90 μL) were seeded in the inner 60 wells of an opaque-wall, clear flat-bottom 96-well plate (Corning/Falcon, 351177) at 20,000 cells per well. The outer perimeter wells were filled with 200 μL PBS to reduce evaporation in the central 60 wells. Epoxyketones 12 (20 mM in DMSO) were diluted in RPMI media to 1 mM (5% DMSO final concentration). Each epoxyketone was then diluted log-fold into 10 concentrations with 5% DMSO in RPMI. Each epoxyketone solution (10 μL) was added to the cells for a 0.5% DMSO final concentration across all wells and final epoxyketone concentrations of 100-0.005 μM. Negative control wells were treated with 10 μL of 5% DMSO in RPMI. Cells were incubated with compounds for 48 h, then cytotoxicity was measured with the CellTitre-Glo assay (Promega G9241).

U266 multiple myeloma = assay: Cytotoxicity of epoxyketones, CellTitre-Glo, 48 h; assay type: cell-based; conditions: Homo sapiens, U-266, U266, 48 h; for pIC50: read-out: IC50; for IC50: read-out: log IC50 (converted)
Description: as §1

EL4 mouse lymphoma = assay: Cytotoxicity of epoxyketones, CellTitre-Glo, 48 h; assay type: cell-based; conditions: EL4, 48 h; for pIC50: read-out: IC50; for IC50: read-out: log IC50 (converted)
Description: as §1

[3] = Stability of β-ketoacid substrates (decarboxylation, 1H-NMR or SPE-MS/MS); assay type: physicochemical
Description: To assess rates of decarboxylation under conditions relevant to storage, biochemical assays, and cellular assays, we investigated the stability of eponemycin-based β-ketoacids 11a and 11c under a variety of conditions as shown in below Table C.
For samples stored neat, β-ketoacid 11 (lyophilized powder) was aliquoted into 1.5-2 mg samples in glass vials and placed under Ar. Samples were stored on the bench top (20-25° C.), in at 4° C. refrigerator or in a −20° C. freezer. At each time point, an entire aliquot was dissolved in CD3OD (600 μL) analyzed by ^1H-NMR for decarboxylation to the corresponding isopropyl ketone byproduct 22. The degree of decarboxylation was determined by comparing integrations of two singlet peaks at 1.40 and 1.33 ppm, arising from the α,α-dimethyl groups in the β-ketoacid 11, to two doublet peaks at 1.09 and 1.06 ppm, arising from the isopropyl methyl groups in the decarboxylation product 22. A septuplet corresponding to the methine proton of the isopropyl group was also observed at 2.91 ppm.
For samples stored in PBS, aliquots of β-ketoacid 11 were dissolved in deuterated PBS (600 μL) and incubated in a 37° C. shaking incubator. At each time point, one aliquot was removed and analyzed by ^1H-NMR as above. NMR changes observed in deuterated PBS were similar to those observed in CD3OD above.
For samples stored in RPMI, β-ketoacid 11 (lyophilized powder) was dissolved in EtOH to a working stock concentration of 20 mM. The sample was diluted in RPMI to 100 μM (1000 μL) and incubated at 37° C. At each time point, an aliquot (50 μL) was removed from the master sample, transferred to a 96-well plate, quenched with 4 vol MeOH, centrifuged at 4,000 g to precipitate debris, and immediately analyzed by SPE-MS/MS to quantitate β-ketoacid 11 remaining.

Row | SMILES | EpnF-catalyzed conversion to epoxyketone (epoxide capture) (EpnF [1]) | pIC50 (Raji B-cell lymphoma) | IC50 (Raji B-cell lymphoma) [µM] | pIC50 (U266 multiple myeloma) | IC50 (U266 multiple myeloma) [µM] | pIC50 (EL4 mouse lymphoma) | IC50 (EL4 mouse lymphoma) [µM] | also measured
1 | CC(C)C[C@H](NC(=O)[C@H](CO)NC(=O)c1ccccc1)C(=O)C(C)(C)C(=O)O [Compound 11o, (4S)-4-[(2S)-3-Hydroxy-2-(phenylformamido)propanamido]-2,2,6-trimethyl-3-oxoheptanoic acid] | also tolerated |  |  |  |  |  |  | efficiency of EpnF-catalyzed conversion compared to parent substrate 11a (in words) (EpnF [2]): slightly lower efficiency
2 | CC(C)C[C@H](NC(=O)[C@H](CO)NC(=O)c1ccccc1)C(=O)[C@@]1(C)CO1 [Compound 12o, (2S)-3-Hydroxy-N-[(2S)-4-methyl-1-[(2R)-2-methyloxiran-2-yl]-1-oxopentan-2-yl]-2-(phenylformamido)propenamide] |  | 5.44 | 3.47 | 5.57 | 2.69 | 5.14 | 7.24 | 
3 | CCCC(=O)N[C@@H](CO)C(=O)N[C@@H](CC(C)C)C(=O)[C@@]1(C)CO1 [Compound 12n] |  | 5.27 | 5.37 | 5.32 | 4.79 | 5.24 | 5.37 | 
4 | CC(C)CCCCC(=O)N[C@H](C(=O)N[C@@H](CC(C)C)C(=O)[C@@]1(C)CO1)[C@@H](C)O [Compound 12l, N-[(1S)-2-Hydroxy-1-{[(2S)-4-methyl-1-[(2R)-2-methyloxiran-2-yl]-1-oxopentan-2-yl]carbamoyl}propyl]-6-methylheptanamide] |  | 5.68 | 2.09 | 5.68 | 2.14 | 5.43 | 3.55 | 
5 | CC(C)CCCCC(=O)N[C@@H](C)C(=O)N[C@@H](CC(C)C)C(=O)[C@@]1(C)CO1 [Compound 12j, 6-Methyl-N-[(1S)-1-{[(2S)-4-methyl-1-[(2R)-2-methyloxiran-2-yl]-1-oxopentan-2-yl]carbamoyl}ethyl]heptanamide] |  | 5.72 | 1.91 | 5.66 | 2.19 | 5.49 | 3.02 | 
6 | C=C(C)C[C@H](NC(=O)[C@H](CO)NC(=O)CCCCC(C)C)C(=O)C(C)(CO)C(=O)O (single isomer, unassigned) [Compound 11d] |  |  |  |  |  |  |  | EpnF-catalyzed formation of epoxyketone (epoxide capture) (EpnF [1]): no epoxide formation was detected
7 | CC(C)CCCCC(=O)N[C@@H](C)C(=O)N[C@@H](CC(C)C)C(=O)C(C)(C)C(=O)O [Compound 11j, (4S)-2,2,6-Trimethyl-4-[(2S)-2-(6-methylheptanamido)propanamido]-3-oxoheptanoic acid] | tolerated |  |  |  |  |  |  | 
8 | CC(C)CCCCC(=O)N[C@@H](CO)C(=O)N[C@@H](CC(C)C)C(=O)C(C)C(=O)O (stereo partly shown) [Compound 11e] | not tolerated |  |  |  |  |  |  | 
9 | CC(C)CCCCC(=O)N[C@@H](CO)C(=O)N[C@@H](C)C(=O)C(C)(C)C(=O)O [Compound 11f, (4S)-4-[(2S)-3-Hydroxy-2-(6-methylheptanamido)propanamido]-2,2-dimethyl-3-oxopentanoic acid] | could not be truncated to alanine |  |  |  |  |  |  | 
10 | CC(C)CCCCC(=O)N[C@@H](CO)C(=O)N[C@@H](CC(C)C)C(=O)C(C)(CO)C(=O)O (single isomer, unassigned) [Compound 11c] |  |  |  |  |  |  |  | EpnF-catalyzed formation of epoxyketone (epoxide capture) (EpnF [1]): no epoxide formation was detected; half-life ([3]; deuterated PBS, PBS, 37° C.): 15 min; stability / rate of decarboxylation (in words) ([3]; neat at low temperatures, buffer or media at 37° C.): considerably faster
11 | CC(C)CCCCC(=O)N[C@@H](Cc1ccccc1)C(=O)N[C@@H](CC(C)C)C(=O)C(C)(C)C(=O)O [Compound 11m, (4S)-2,2,6-Trimethyl-4-[(2S)-2-(6-methylheptanamido)-3-phenylpropanamido]-3-oxoheptanoic acid] | not accepted |  |  |  |  |  |  | 
